Laboratory results: patent publication US20250326771A1, “PIPERAZINE DERIVATIVES USEFUL IN HIV THERAPY” (VIIV HEALTHCARE COMPANY, priority 2022, published 2025)
Like-named read-outs stand apart in the source and are kept apart here.

How the values were obtained:
[1] = system: Jurkat HIV-luciferase clones; test: Jurkat latency reversal assay; assay type: cell-based; details: Homo sapiens, 48 h; Jurkat latency reversal assay potency; read-out: Jurkat pEC50 (converted)
Method in brief: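 Three pooled Jurkat reporter clones, each with one or two integrated HIV-luciferase proviruses, 5,000 cells/well; duplicate 14-point titrations starting at 10 μM; 48 h, 37° C, then Steady-Glo luminescence; four-parameter logistic analysis yields EC50 and percent maximal activation against DMSO vehicle.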

cIAP2-BIR2 = cIAP2-BIR2 (Homo sapiens (Human), UniProt Q13489); test: BIR binding assay (FRET competition), cIAP2 BIR2
Method in brief: (§1)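 Compounds tested as 15-point, 3-fold series displacing 200 nM AlexaFluor647-labelled SMAC peptide from His-tagged BIR domain (cIAP1-BIR3 50 nM; cIAP1-BIR2 and cIAP2-BIR2 325 nM; XIAP-BIR3 100 nM), pH 7.4, 60 min. Eu-W1024 (2 nM) added 30 min; emission ratio fitted for IC50.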

cIAP1-BIR2 = cIAP1-BIR2 (Homo sapiens (Human), UniProt Q13490); test: BIR binding assay (FRET competition), cIAP1 BIR2
Method in brief: as §1

cIAP2-BIR3 = cIAP2-BIR3 (Homo sapiens (Human), UniProt Q13489); test: BIR binding assay (FRET competition), cIAP2 BIR3; details: for cIAP2 BIR3 vs BIR2 separation window: fold separation (FS) for cIAP2
XIAP-BIR2 = XIAP-BIR2 (Homo sapiens (Human), UniProt P98170); test: BIR binding assay (FRET competition), XIAP BIR2; details: for IC50: read-out: XIAP BIR2 (pIC50) (converted)
Method in brief: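 Competitive TR-FRET used His-tagged XIAP-BIR2 (200 nM) and 200 nM AlexaFluor647-labelled AVPIAQKSE SMAC peptide in HEPES buffer pH 7.4 with CHAPS, glycerol and DTT, incubated 60 min before 30 min with 2 nM Eu-W1024. The 615/665 nm ratio from a 15-point, 3-fold series was fit with a four-parameter model for IC50/pIC50.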

cIAP1-BIR3 = cIAP1-BIR3 (Homo sapiens (Human), UniProt Q13490); test: BIR binding assay (FRET competition), cIAP1 BIR3; details: for cIAP1 BIR3 vs BIR2 separation window: fold separation (FS) for cIAP1
Method in brief: as §1

XIAP-BIR3 = XIAP-BIR3 (Homo sapiens (Human), UniProt P98170); test: BIR binding assay (FRET competition), XIAP BIR3; details: for XIAP BIR3 vs BIR2 separation window: fold separation (FS) for XIAP
Method in brief: as §1

Sequence of cIAP1-BIR3 (Q13490 253-363): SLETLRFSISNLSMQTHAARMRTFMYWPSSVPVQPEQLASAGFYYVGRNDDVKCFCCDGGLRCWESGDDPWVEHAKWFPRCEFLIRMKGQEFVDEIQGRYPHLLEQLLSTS
Sequence of cIAP1-BIR2 (Q13490 173-257): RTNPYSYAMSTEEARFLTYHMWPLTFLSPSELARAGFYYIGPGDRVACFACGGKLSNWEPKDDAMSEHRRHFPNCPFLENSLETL
Sequence of XIAP-BIR2 (P98170 124-240): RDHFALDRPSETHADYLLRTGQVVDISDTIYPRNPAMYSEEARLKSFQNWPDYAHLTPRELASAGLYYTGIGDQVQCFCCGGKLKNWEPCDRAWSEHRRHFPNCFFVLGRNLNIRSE
Sequence of XIAP-BIR3 (P98170 241-356): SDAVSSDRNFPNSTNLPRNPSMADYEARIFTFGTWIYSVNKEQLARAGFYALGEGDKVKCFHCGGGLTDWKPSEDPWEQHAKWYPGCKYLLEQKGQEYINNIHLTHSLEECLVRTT
Sequence of cIAP2-BIR3 (Q13489 238-349): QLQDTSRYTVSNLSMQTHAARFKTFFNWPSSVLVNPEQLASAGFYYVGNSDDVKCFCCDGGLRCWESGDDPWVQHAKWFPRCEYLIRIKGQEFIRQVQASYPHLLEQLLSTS
Sequence of cIAP2-BIR2 (Q13489 158-242): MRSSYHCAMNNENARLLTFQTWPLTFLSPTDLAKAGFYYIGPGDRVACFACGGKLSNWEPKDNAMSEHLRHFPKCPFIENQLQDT

SMILES | EC50 [1] | IC50 (cIAP2-BIR2) | IC50 (cIAP1-BIR2) | IC50 (cIAP2-BIR3) | cIAP2 BIR3 vs BIR2 separation window (cIAP2-BIR3) | IC50 (XIAP-BIR2; FRET competition binding) | IC50 (cIAP1-BIR3) | cIAP1 BIR3 vs BIR2 separation window (cIAP1-BIR3) | IC50 (XIAP-BIR3) | XIAP BIR3 vs BIR2 separation window (XIAP-BIR3) | IC50 (XIAP-BIR2; FRET competition) | XIAP BIR2 (pIC50) (XIAP-BIR2; FRET competition binding) | cIAP1 BIR3 (pIC50) (cIAP1-BIR3; FRET competition binding)
C[C@@H]1CN(CC(=O)N2CC(C)(C)c3[nH]c(=O)c(Cc4ccc(F)cc4)cc32)[C@@H](CN2CCO[C@H](C(=O)N[C@H]3CC[C@H](NC(=O)[C@@H]4CN(C[C@H]5CN[C@H](C)CN5CC(=O)N5CC(C)(C)c6[nH]c(=O)c(Cc7ccc(F)cc7)cc65)CCO4)CC3)C2)CN1 [Example 92, (2S,2'S)-N,N′-((1S,4S)-cyclohexane-1,4-diyl)bis(4-(((2R,5R)-1-(2-(6-(4-fluorobenzyl)-3,3-dimethyl-5-oxo-2,3,4,5-tetrahydro-1H-pyrrolo[3,2-b]pyridin-1-yl)-2-oxoethyl)-5-methylpiperazin-2-yl)methyl)morpholine-2-carboxamide)] | 12.6 to 63.1 nM | 1000 to 3160 nM | 1000 to 3160 nM | 7.94 to 15.8 nM | +++ (10,000>FS>1,000) | 10000 to 51300 nM | 1.38 to 7.94 nM | +++ (10,000>FS>1,000) | 7.94 to 15.8 nM | ++++ (FS>10,000) |  |  | 
C[C@@H]1CN(CC(=O)N2CC(C)(C)c3[nH]c(=O)c(Cc4ccc(F)cc4)cc32)[C@@H](CN2CCO[C@H](C(=O)NCC(=O)N3CCN(C[C@H]4CN[C@H](C)CN4CC(=O)N4CC(C)(C)c5[nH]c(=O)c(Cc6ccc(F)cc6)cc54)[C@H](C)C3)C2)CN1 [Compound 159, (S)-4-(((2R,5R)-1-(2-(6-(4-fluorobenzyl)-3,3-dimethyl-5-oxo-2,3,4,5-tetrahydro-1H-pyrrolo[3,2-b]pyridin-1-yl)-2-oxoethyl)-5-methylpiperazin-2-yl)methyl)-N-(2-((R)-4-(((2R,5R)-1-(2-(6-(4-fluorobenzyl)-3,3-dimethyl-5-oxo-2,3,4,5-tetrahydro-1H-pyrrolo[3,2-b]pyridin-1-yl)-2-oxoethyl)-5-methylpiperazin-2-yl)methyl)-3-methylpiperazin-1-yl)-2-oxoethyl)morpholine-2-carboxamide] | 63.1 to 316 nM | 22.4 to 1000 nM | 22.4 to 1000 nM | 1.38 to 7.94 nM | +++ (10,000>FS>1,000) |  | 7.94 to 15.8 nM | ++ (1,000>FS>100) | 7.94 to 15.8 nM | ++++ (FS>10,000) | 10000 to 51300 nM |  | 
C[C@@H]1CN(CC(=O)N2CC(C)(C)c3[nH]c(=O)c(Cc4ccc(F)cc4)cc32)[C@@H](CN2CCC[C@@H](NC(=O)CCCCCCC(=O)N[C@@H]3CCCN(C[C@H]4CN[C@H](C)CN4CC(=O)N4CC(C)(C)c5[nH]c(=O)c(Cc6ccc(F)cc6)cc54)C3)C2)CN1 [Example 44, N^1,N^8-bis((R)-1-(((2R,5R)-1-(2-(6-(4-fluorobenzyl)-3,3-dimethyl-5-oxo-2,3,4,5-tetrahydro-1H-pyrrolo[3,2-b]pyridin-1-yl)-2-oxoethyl)-5-methylpiperazin-2-yl)methyl)piperidin-3-yl)octanediamide] | 316 to 3310 nM | 10000 to 51300 nM | 10000 to 51300 nM | 15.8 to 31.6 nM | ++++ (FS>10,000) |  |  | +++ (10,000>FS>1,000) | 15.8 to 31.6 nM | ++++ (FS>10,000) |  | + (4.29<pIC50<=5.00) | + (7.50>pIC50>=6.30)
C[C@@H]1CN(CC(=O)N2CC(C)(C)c3[nH]c(=O)c(Oc4ccccc4)cc32)[C@@H](CN2CCO[C@H](C(=O)NCc3ccc(CNC(=O)[C@@H]4CN(C[C@H]5CN[C@H](C)CN5CC(=O)N5CC(C)(C)c6[nH]c(=O)c(Oc7ccccc7)cc65)CCO4)cc3)C2)CN1 [Compound 185, (2S,2′S)-N,N′-(1,4-phenylenebis(methylene)) bis(4-(((2R,5R)-1-(2-(3,3-dimethyl-5-oxo-6-phenoxy-2,3,4,5-tetrahydro-1H-pyrrolo[3,2-b]pyridin-1-yl)-2-oxoethyl)-5-methylpiperazin-2-yl)methyl)morpholine-2-carboxamide)] | 316 to 3310 nM | 10000 to 51300 nM | 3160 to 10000 nM | 1.38 to 7.94 nM | ++++ (FS>10,000) |  | 15.8 to 31.6 nM | +++ (10,000>FS>1,000) | 31.6 to 501 nM | +++ (10,000>FS>1,000) | 10000 to 51300 nM |  | 
